Measured values published in patent US20120302609A1, “Pyrazolines for the Modulation of PKM2” (Dynamix Pharmaceuticals LTD., priority 2011, published 2012).

What was measured:
[1] = system: HT-29 (Colorectal cancer cell line); experiment: Cell proliferation, Assay Protocol I (CellTiter-Glo); type: cell-based; settings: Homo sapiens
Method: (§1) Growth inhibitory activity against the human tumor cell lines was determined using Promega's CellTiter-Glo® assay. The cell lines of interest were placed in a 96-well microculture plate (Costar® white, flat bottom #3917) in a total volume of 90 μL/well. After 24 hours of incubation in a humidified incubator at 37° C. with 5% CO2 and 95% air, 10 μL of serially diluted test compounds in growth medium were added to each well. After 96 total hours of culture in a CO2 incubator, the plated cells and CellTiter-Glo® (Promega # G7571) reagents were brought to room temperature to equilibrate for 30 minutes. 100 μL of CellTiter-Glo® reagent was added to each well. The plate was shaken for 2 minutes and then left to equilibrate for 10 minutes before reading luminescence on the Tecan GENios microplate reader.
(§2) Percent inhibition of cell growth was calculated relative to untreated control wells. All tests were performed in duplicate for each concentration level. The IC50 value for the test compounds was estimated using Prism 3.03 by curve-fitting the data.

[2] = system: HepG2 (Hepatocellular cancer cell line); experiment: as above; type: cell-based; settings: Homo sapiens
Method: as §1, §2

[3] = system: A549 (Non-small cell lung carcinoma cell line); experiment: as above; type: cell-based; settings: Homo sapiens
Method: as §1, §2

[4] = system: H1299 (Non-small cell lung carcinoma cell line); experiment: as above; type: cell-based; settings: Homo sapiens, NCI-H1299, 96 total hours of culture
Method: as §1, §2

[5] = system: SW480 (Colorectal cancer cell line); experiment: as above; type: cell-based; settings: Homo sapiens
Method: as §1, §2

PKL = PKL (Homo sapiens, UniProt P30613); experiment: Isoform selectivity of pyruvate kinases; type: biochemical
Sequence of PKL (P30613 1-543 isoform P30613-2): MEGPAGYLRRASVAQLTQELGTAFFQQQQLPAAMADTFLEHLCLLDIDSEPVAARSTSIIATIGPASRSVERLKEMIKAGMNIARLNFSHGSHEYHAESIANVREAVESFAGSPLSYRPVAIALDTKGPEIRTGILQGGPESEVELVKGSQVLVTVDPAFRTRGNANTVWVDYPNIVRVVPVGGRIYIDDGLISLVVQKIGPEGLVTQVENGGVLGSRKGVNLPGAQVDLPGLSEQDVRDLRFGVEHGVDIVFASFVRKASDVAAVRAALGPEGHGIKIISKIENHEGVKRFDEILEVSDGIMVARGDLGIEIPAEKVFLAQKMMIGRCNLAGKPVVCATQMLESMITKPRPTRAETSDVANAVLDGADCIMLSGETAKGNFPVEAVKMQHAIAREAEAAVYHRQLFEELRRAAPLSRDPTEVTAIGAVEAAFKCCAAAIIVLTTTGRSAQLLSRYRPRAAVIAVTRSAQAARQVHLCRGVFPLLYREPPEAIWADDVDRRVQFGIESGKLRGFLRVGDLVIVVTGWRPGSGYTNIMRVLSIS

HepG2 (liver) = experiment: Cell proliferation assay (XTT); type: cell-based; settings: Homo sapiens, Complete media, Assay duration: 72 hours, Readout: XTT
Excerpt: (§3) The assay is based on the ability of metabolic active cells to reduce the tetrazolium salt XTT to orange colored compounds of formazan. The dye formed is water soluble and the dye intensity can be read at a given wavelength with a spectrophotometer. The intensity of the dye is proportional to the number of metabolic active cells. The use of multiwell plates and an ELISA reader enables testing a large number of samples and obtaining easy and rapid results. The test procedure includes cultivation of cells in a 96-well plate, adding the XTT reagent and incubation for 2-24 hours. During incubation an orange color is formed, the intensity of which can be measured with a spectrophotometer, in this instance with an ELISA reader. The greater the number of active cells in the well, the greater the activity of mitochondria enzymes, and the higher the concentration of the dye formed, which can then be measured and quantitated.
• 1. […] The absorbance of the samples was measured against a background control as a blank (see 7) with a spectrophotometer (ELISA reader) at a wavelength of 450-500 nanometer. In order to measure reference absorbance (to measure non-specific readings), a wavelength of 630-690 nanometer was used and subtracted from the 450-500 nanometer measurement. • 7. […] This background absorbance depends on the culture medium, pH, incubation time and length of exposure to light. […]

DU145 (prostate) = experiment: Cell proliferation assay (CellTiter-Glo Luminescent); type: cell-based; settings: Homo sapiens, DU-145, Complete media, 96 hr
BT-474 (Breast) = experiment: as above; type: cell-based; settings: Homo sapiens, Complete media, 96 hr
H-460 (lung) = experiment: Cell proliferation assay (XTT); type: cell-based; settings: Homo sapiens, NCI-H460, 72 h, Assay duration: 72 hours, Readout: XTT
Method: Day 0 Cells were seeded at 3000 cells/well in 100 μl full media in 96-well culture plates (60 wells/plate, external wells filled with 100 μl PBS) and incubated overnight. • Day 1 On the following day, full media was changed to the tested media and compounds were added in 0.5% DMSO final. • Day 2-5 Cells were incubated over 72 hr. • Day 5 Cell proliferation was assessed using XTT proliferation assay as follows:
as §3
• 1. […] The absorbance of the samples was measured against a background control as a blank (see 7) with a spectrophotometer (ELISA reader) at a wavelength of 450-500 nanometer. In order to measure reference absorbance (to measure non-specific readings), a wavelength of 630-690 nanometer was used and subtracted from the 450-500 nanometer measurement. • 7. Background control (blank): Slight spontaneous absorbance around 450-500 nanometer occurs in the culture medium incubated with the XTT reagent. This background absorbance depends on the culture medium, pH, incubation time and length of exposure to light. […] The average absorbance of the blank control wells was subtracted from that of the other wells. […]

HCT-116 (colon) = experiment: Cell proliferation assay (CellTiter-Glo Luminescent); type: cell-based; settings: Homo sapiens, 1 mM glucose, 96 hr
PKR = PKR (Homo sapiens, UniProt P30613); experiment: Isoform selectivity of pyruvate kinases; type: biochemical
Sequence of PKR (P30613 whole entry, canonical isoform): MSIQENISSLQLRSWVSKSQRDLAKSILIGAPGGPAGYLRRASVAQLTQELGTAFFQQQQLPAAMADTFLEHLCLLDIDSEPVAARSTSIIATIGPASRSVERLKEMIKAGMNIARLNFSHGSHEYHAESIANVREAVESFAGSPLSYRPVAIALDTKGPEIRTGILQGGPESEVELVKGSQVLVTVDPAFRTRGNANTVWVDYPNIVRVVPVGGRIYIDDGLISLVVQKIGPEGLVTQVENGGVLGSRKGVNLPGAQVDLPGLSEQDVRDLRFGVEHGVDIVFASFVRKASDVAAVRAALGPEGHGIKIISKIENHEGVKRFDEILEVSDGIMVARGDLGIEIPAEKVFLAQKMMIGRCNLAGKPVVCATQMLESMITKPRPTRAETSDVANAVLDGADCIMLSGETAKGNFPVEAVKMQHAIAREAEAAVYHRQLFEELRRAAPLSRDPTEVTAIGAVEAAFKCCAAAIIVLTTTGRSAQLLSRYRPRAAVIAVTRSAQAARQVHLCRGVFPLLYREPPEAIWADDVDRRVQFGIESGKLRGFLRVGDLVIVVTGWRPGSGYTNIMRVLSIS

SMILES | IC50 [1] [µM] | IC50 [2] [µM] | IC50 [3] [µM] | IC50 [4] [µM] | IC50 [5] [µM] | AC50 (PKL) [µM] | AC50 (HepG2 (liver)) [µM] | AC50 (DU145 (prostate)) [µM] | AC50 (BT-474 (Breast)) [µM] | AC50 (H-460 (lung); 1 mM glucose) [µM] | AC50 (H-460 (lung); Complete media) [µM] | AC50 (H-460 (lung); Lipoprotein-free media) [µM] | AC50 (HCT-116 (colon)) [µM] | AC50 (PKR) [µM]
CCS(=O)(=O)Nc1ccc(C2=NN(C(C)=O)C(c3ccc(OC)cc3)C2)cc1 (racemic) [Compound 1A, N-(4-(1-acetyl-5-(4-methoxyphenyl)-4,5-dihydro-1H-pyrazol-3-yl)phenyl)ethanesulfonamide] | > 100 | 40 to 100 | < 40 | 40 to 100 | 40 to 100 |  |  |  |  |  |  |  |  | 
COc1ccc([C@@H]2CC(c3ccc(NS(=O)(=O)c4ccc(F)cc4)cc3)=NN2C(C)=O)cc1 [Compound 13A, (S)—N-(4-(1-acetyl-5-(4-methoxyphenyl)-4,5-dihydro-1H-pyrazol-3-yl)phenyl)-4-fluorobenzenesulfonamide] |  |  |  |  |  | > 11 | > 20 | 10 to 20 | 10 to 20 | 10 to 20 | > 20 | < 3 | 10 to 20 | > 30
